According to BindingDB's records for doi:10.7270/Q2V40SNS (Nmmlsc, 2009):
pEC50: −log10 of the molar value.

Target: Ras-related protein Rab-2A (Canis lupus familiaris, UniProt P61105)
Assay: Rab2 wildtype GTP-binding inhibitors, SAR follow-up, biochemical, additional analogs, bead-based flow cytometry, multiplex (AID 2046)
Settings: not given

Chain of Ras-related protein Rab-2A (P61105 whole entry): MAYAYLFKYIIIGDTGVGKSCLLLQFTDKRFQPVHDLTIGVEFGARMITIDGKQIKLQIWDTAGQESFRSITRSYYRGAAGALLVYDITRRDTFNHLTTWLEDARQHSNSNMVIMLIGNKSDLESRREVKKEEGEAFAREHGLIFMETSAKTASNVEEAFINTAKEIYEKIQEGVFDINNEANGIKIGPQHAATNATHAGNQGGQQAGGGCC

**Q.** `O=C1Nc2c(Cl)cccc2C1=C1Nc2ccccc2C1=O` was tested. Which pEC50 did it give?
**A.** Its pEC50 is 4.52.

**Q.** How did the pEC50 turn out when `O=C1Nc2c(Br)cccc2C1=C1Nc2ccccc2C1=O` was run?
**A.** The pEC50 was 4.52.

**Q.** How did the pEC50 turn out when `O=C1Nc2c(F)cccc2C1=C1Nc2ccccc2C1=O` was run?
**A.** The pEC50 was 4.52.

**Q.** How did the pEC50 turn out when `O=C1NC(=O)/C(=C2/C(=O)Nc3ccccc32)N1` was run?
**A.** The pEC50 was 4.52.

**Q.** `O=C1Nc2ccc(Br)cc2C1=C1Nc2ccccc2C1=O` was tested. Which pEC50 did it give?
**A.** Its pEC50 is 4.52.

**Q.** With `O=C1Nc2ccccc2/C1=C1/Nc2ccccc2C1=O` [2-[(3Z)-2-oxo-2,3-dihydro-1H-indol-3-ylidene]-2,3-dihydro-1H-indol-3-one] as the molecule, how does the pEC50 read?
**A.** Its pEC50 is 4.52.

**Q.** How did the pEC50 turn out when `O=C1N=c2ccccc2=C1c1[nH]c2ccccc2c1NO` [3-[3-(hydroxyamino)-1H-indol-2-yl]-2-indolone] was run?
**A.** The pEC50 was 4.52.

**Q.** With `O=C1N=c2ccc(Br)cc2=C1c1[nH]c2ccccc2c1NO` [5-bromanyl-3-[3-(oxidanylamino)-1H-indol-2-yl]indol-2-one] as the molecule, how does the pEC50 read?
**A.** The pEC50 was 4.19.

**Q.** `O=C1N=c2c(Br)cccc2=C1c1[nH]c2ccccc2c1NO` [7-bromanyl-3-[3-(oxidanylamino)-1H-indol-2-yl]indol-2-one] was tested. Which pEC50 did it give?
**A.** The pEC50 was 4.18.

**Q.** With `O=C1N=c2c(Cl)cccc2=C1c1[nH]c2ccccc2c1NO` [7-chloro-3-[3-(hydroxyamino)-1H-indol-2-yl]-2-indolone] as the molecule, how does the pEC50 read?
**A.** The pEC50 was 4.52.

**Q.** With `O=C1N=c2c(F)cccc2=C1c1[nH]c2ccccc2c1NO` [7-fluoro-3-[3-(hydroxyamino)-1H-indol-2-yl]-2-indolone] as the molecule, how does the pEC50 read?
**A.** The pEC50 was 4.52.

**Q.** How did the pEC50 turn out when `O=C1NC(=S)N/C1=C1\C(=O)Nc2ccccc21` [(3Z)-3-(5-oxo-2-sulfanylideneimidazolidin-4-ylidene)-1H-indol-2-one] was run?
**A.** Its pEC50 is 4.52.

**Q.** `COc1ccc2cc([C@H](C)C(=O)O)ccc2c1` [UNM-0000306098] was tested. Which pEC50 did it give?
**A.** Its pEC50 is 4.52.

**Q.** `C[C@@H](C(=O)O)c1cccc(Oc2ccccc2)c1` [calcium;2-(3-phenoxyphenyl)propanoic acid;hydrate] was tested. Which pEC50 did it give?
**A.** Its pEC50 is 4.52.

**Q.** `COc1ccc2cc([C@@H](C)C(=O)O)ccc2c1` [sodium;(2R)-2-(6-methoxy-2-naphthalenyl)propanoate] was tested. Which pEC50 did it give?
**A.** The pEC50 was 5.76.

Same assay, conditions: inactive by the depositor's call

**Q.** With `O=C1Nc2cccc(Br)c2/C1=C1/Cc2ccccc2C1=O` as the molecule, how does the pEC50 read?
**A.** Its pEC50 is 4.52.

**Q.** How did the pEC50 turn out when `COc1ccc(S(=O)(=O)n2c(N)c(C#N)c(-c3ccccc3)c2C(=O)c2ccc(Br)cc2)cc1` was run?
**A.** Its pEC50 is 4.52.

**Q.** How did the pEC50 turn out when `O=[N+]([O-])c1ccc(C#Cc2ccccc2)cc1` was run?
**A.** The pEC50 was 4.52.

**Q.** With `O=C(C#Cc1ccccc1)c1ccc(OC(F)(F)F)cc1` as the molecule, how does the pEC50 read?
**A.** The pEC50 was 4.52.

**Q.** With `COc1ccc(C(=O)C#Cc2ccccc2)cc1` [1-(4-methoxyphenyl)-3-phenyl-2-propyn-1-one] as the molecule, how does the pEC50 read?
**A.** The pEC50 was 4.52.

**Q.** With `O=C(C#Cc1ccccc1)c1ccc([N+](=O)[O-])cc1` [1-(4-nitrophenyl)-3-phenyl-2-propyn-1-one] as the molecule, how does the pEC50 read?
**A.** Its pEC50 is 4.52.

**Q.** `CC(C(=O)O)c1cccc(C(=O)c2ccccc2)c1` (configuration not stated) [2-(3-benzoylphenyl)propanoic acid] was tested. Which pEC50 did it give?
**A.** The pEC50 was 4.52.

**Q.** `COc1ccc2cc(CC(=O)O)ccc2c1` [2-(6-methoxynaphthalen-2-yl)ethanoic acid] was tested. Which pEC50 did it give?
**A.** Its pEC50 is 4.52.

**Q.** With `CC(=O)Oc1ccccc1C(=O)O` [2-(acetyloxy)benzoic acid] as the molecule, how does the pEC50 read?
**A.** Its pEC50 is 4.52.

**Q.** With `CCCCS(=O)(=O)n1c(N)c(C#N)c(-c2cc(OC)c(OC)c(OC)c2)c1C(=O)c1ccccc1` [2-amino-5-benzoyl-1-butylsulfonyl-4-(3,4,5-trimethoxyphenyl)-3-pyrrolecarbonitrile] as the molecule, how does the pEC50 read?
**A.** Its pEC50 is 4.52.

**Q.** With `COc1ccc(S(=O)(=O)n2c(N)c(C#N)c(-c3cncc(Br)c3)c2C(=O)c2ccccc2)cc1` [2-amino-5-benzoyl-4-(5-bromo-3-pyridinyl)-1-(4-methoxyphenyl)sulfonyl-3-pyrrolecarbonitrile] as the molecule, how does the pEC50 read?
**A.** The pEC50 was 4.52.

**Q.** With `COc1ccc(-c2c(C#N)c(N)n(S(C)(=O)=O)c2C(=O)c2ccccc2)cc1Br` [2-azanyl-4-(3-bromanyl-4-methoxy-phenyl)-1-methylsulfonyl-5-(phenylcarbonyl)pyrrole-3-carbonitrile] as the molecule, how does the pEC50 read?
**A.** Its pEC50 is 4.52.

**Q.** With `COc1cc(-c2c(C#N)c(N)n(S(=O)(=O)c3c(C(C)C)cc(C(C)C)cc3C(C)C)c2C(=O)c2ccccc2)cc(OC)c1OC` [2-azanyl-5-(phenylcarbonyl)-4-(3,4,5-trimethoxyphenyl)-1-[2,4,6-tri(propan-2-yl)phenyl]sulfonyl-pyrrole-3-carbonitrile] as the molecule, how does the pEC50 read?
**A.** Its pEC50 is 4.52.

**Q.** How did the pEC50 turn out when `O=C(C#Cc1ccccc1)c1cccnc1` [3-phenyl-1-pyridin-3-ylprop-2-yn-1-one] was run?
**A.** The pEC50 was 4.52.

**Q.** How did the pEC50 turn out when `COC(=O)c1ccc(C(=O)C#Cc2ccccc2)cc1` [4-(1-oxo-3-phenylprop-2-ynyl)benzoic acid methyl ester] was run?
**A.** Its pEC50 is 4.52.

**Q.** With `N#Cc1ccc(C(=O)C#Cc2ccccc2)cc1` [4-(3-phenylprop-2-ynoyl)benzenecarbonitrile] as the molecule, how does the pEC50 read?
**A.** Its pEC50 is 4.52.

**Q.** With `O=C1Nc2c(Br)cccc2/C1=C1/Cc2ccccc2C1=O` [(3E)-7-bromo-3-(3-oxo-1H-inden-2-ylidene)-1H-indol-2-one] as the molecule, how does the pEC50 read?
**A.** Its pEC50 is 4.52.

**Q.** How did the pEC50 turn out when `CC(C)Cc1ccc([C@H](C)C(=O)O)cc1` [(S)-2-(4-Isobutyl-phenyl)-propionic acid] was run?
**A.** The pEC50 was 4.52.

**Q.** With `O=C1Nc2ccccc2/C1=C1/Cc2ccccc2C1=O` [UNM-0000305763] as the molecule, how does the pEC50 read?
**A.** The pEC50 was 4.52.

**Q.** `N#Cc1c(-c2ccc(Cl)cc2)c(C(=O)c2ccccc2)n(S(=O)(=O)c2ccc([N+](=O)[O-])cc2)c1N` [UNM-0000305780] was tested. Which pEC50 did it give?
**A.** Its pEC50 is 4.52.

**Q.** `COc1ccc(S(=O)(=O)n2c(N)c(C#N)c(-c3cc(Br)c(OC)c(OC)c3)c2C(=O)c2ccccc2)cc1` [UNM-0000305782] was tested. Which pEC50 did it give?
**A.** The pEC50 was 4.52.

**Q.** `O=C(C#Cc1ccccc1)c1ccccc1[N+](=O)[O-]` [UNM-0000306038] was tested. Which pEC50 did it give?
**A.** Its pEC50 is 4.52.

**Q.** With `O=C(C#Cc1ccccc1)c1ccccc1` [UNM-0000306039] as the molecule, how does the pEC50 read?
**A.** Its pEC50 is 4.52.

**Q.** `O=C(C#Cc1ccccc1)c1ccc(Cl)cc1` [UNM-0000306055] was tested. Which pEC50 did it give?
**A.** The pEC50 was 4.52.

**Q.** With `O=C(C#Cc1ccccc1)c1ccc(F)cc1` [UNM-0000306059] as the molecule, how does the pEC50 read?
**A.** Its pEC50 is 4.52.

**Q.** How did the pEC50 turn out when `CC1=C(CC(=O)O)c2cc(F)ccc2/C1=C/c1ccc([S+](C)[O-])cc1` (configuration not stated) [UNM-0000306136] was run?
**A.** Its pEC50 is 4.52.

**Q.** With `CSc1ccc(/C=C2/C(C)=C(CC(=O)O)c3cc(F)ccc32)cc1` [{6-Fluoro-2-methyl-3-[1-(4-methylsulfanyl-phenyl)-meth-(E)-ylidene]-3H-inden-1-yl}-acetic acid] as the molecule, how does the pEC50 read?
**A.** The pEC50 was 4.52.
